The source of these data is ChEMBL document CHEMBL3091308, “Bisindole alkaloids with neural anti-inflammatory activity from Gelsemium elegans” (J Nat Prod, 2013).

A short description of series [1]: Cytotoxicity against human HCT8 cells at 10 uM after 72 hrs by MTT assay. The class given is cell-based. As to conditions: hct-8, 72 h.
Series [2] in a line: Cytotoxicity against human Bel7402 cells at 10 uM after 72 hrs by MTT assay. As to conditions: bel-7402, 72 h. Type of series: cell-based. In general terms: Formazan colour is commonly taken as a measure of viable cells.
Series [3] is described as follows: Cytotoxicity against human BGC823 cells at 10 uM after 72 hrs by MTT assay. The following applies: bgc-823, 72 h. Type of series: cell-based.
In series [4] the test system is A2780. The series is described as follows: Cytotoxicity against human A2780 cells at 10 uM after 72 hrs by MTT assay. Type of series: cell-based. As to conditions: a2780, 72 h.
For series [5], the system named is RAW. Put plainly: Cytotoxicity against mouse RAW cells at 50 uM after 72 hrs by MTT assay. The class given is cell-based.
Series [6] is described as follows: Cytotoxicity against […] cells at 50 uM after 72 hrs by MTT assay. Type of series: cell-based. The following applies: bv-2, 72 h.
The subject of series [7] is A549. Put plainly: Cytotoxicity against human A549 cells at 10 uM after 72 hrs by MTT assay. Type of series: cell-based. As to conditions: a549, 72 h.
Series [8] is described as follows: (§1) Antiinflammatory activity in […] cells assessed as inhibition of LPS-induced NO production measured 24 hrs post LPS-challenge by spectrophotometry. The class given is functional, cell-based. As to conditions: BV-2, 24 h.
Series [9] relates to BV-2. The series is described as §1. Type of series: functional, cell-based.

As to `C/C=C1\CN2C(=O)[C@]3(c4cc(-c5cc([C@@]67C[C@H]8[C@H]9CO[C@@H]6C[C@H]9/C(=C/C)CN8C7=O)c(N)cc5OC)c(OC)cc4N)C[C@H]2[C@H]2CO[C@@H]3C[C@@H]12`, the Activity result in series [1], in [2], in series [3], in [4], in series [5] and in [6] was “Non-toxic” in each case. Moreover, the Activity result in series [7] was “Non-toxic”.

`CON1C(=O)[C@@]2(C[C@@H]3N=C([C@](C)(O)C[C@@H](C)[C@@]45ON4[C@H]4C[C@@]6(C(=O)N(OC)c7ccccc76)[C@H]6C[C@@H]5[C@@H]4CO6)[C@@H]4C[C@H]2OC[C@H]34)c2ccccc21` (some centres undefined): the Activity result in series [1], in [2], in series [3], in series [4], in [5] and in series [6] was “Non-toxic” throughout. For the same compound, the Activity entry in series [7] is “Non-toxic”. In series [8], the IC50 (in general, the concentration that gives 50% inhibition) turned out to be 10.2 µM. Besides, in [9], the inhibition entry was “Dose-dependent effect”.

With `CON1C(=O)[C@@]2(C[C@@H]3N=C([C@@](C)(O)C[C@@H](C)[C@@]45ON4[C@H]4C[C@@]6(C(=O)N(OC)c7ccccc76)[C@H]6C[C@@H]5[C@@H]4CO6)[C@@H]4C[C@H]2OC[C@H]34)c2ccccc21` (some centres undefined), the Activity result in series [1], in series [2], in series [3], in series [4], in series [5] and in series [6] was “Non-toxic” throughout. Moreover, in [7], the Activity entry is “Non-toxic”.

Turning to `COc1cc(/C=C/C(=O)CC(=O)/C=C/c2ccc(O)c(OC)c2)ccc1O` [CURCUMIN], the IC50 in series [8] was determined as 3.9 µM.
